In patent publication US20250333394A1, “Tiparp Inhibitor Compounds” (AbbVie Inc., priority 2024, published 2025):

What was measured:
DLD-1 parent cells = assay: CellTiter-Glo DLD-1 parent cell assay; assay type: cell-based; conditions: Homo sapiens, 144 h, 6 days, read-out: DLD-1 CTG EC50
Outline: (§1)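 DLD-1 parent (500 cells/well) and DLD-1 BRCA2 (−/−) (1200 cells/well) cells in RPMI 1640 with 10% FBS exposed to compounds at 30 μM to 0.5 nM (3-fold dilutions) for 6 days at 37° C. Viability read by CellTiter-Glo luminescence on day 7.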

DLD-1 BRCA2 (−/−) cells = assay: CellTiter-Glo DLD-1 BRCA2 (−/−) cell assay for PARP1/2 inhibition; assay type: cell-based; conditions: Homo sapiens, 144 h, 6 days, read-out: DLD-1 BRCA2 (−/−) CTG EC50
Outline: as §1

MC-38 (Ker) tumors = assay: MC-38 (Ker) syngeneic model efficacy; assay type: in vivo, mouse; conditions: PO once daily up to 21 days, C57BL/6 mice
Experimental: (§2) The murine cell line MC-38 derived from C57BL6 murine colon adenocarcinoma cells was obtained from Kerafast (Boston, MA, USA). A suspension of 2.5×10^5 cells in culture medium mixed with Matrigel® (Corning Life Sciences, Lowell, MA, USA; 1:1, volume:volume) was injected subcutaneously in the right hind flank of female C57BL/6 mice to generate tumor formation. Treatment started when the size of the flank tumors was approximately 120 mm^3. Vehicle and four different doses of Example 1 were administered once daily to each of eight mice at each dose level for up to 21 days. Each administration consisted of a single 0.2 mL oral (PO) dose in a vehicle formulation (10% ethanol, 30% PEG300, and 60% PHOSAL® 50 PG).

IFNβ = assay: Tumor selective induction of IFNβ in MC-38 (Ker) syngeneic model; assay type: in vivo, mouse; conditions: 3 hours after last dose, PO once daily for 2 days
Experimental: as §2, with “C57BL/6” for “C57BL6”, “500” for “120”, “three” for “four”, “four to five” for “eight”, “2” for “up to 21”, “PO” for “oral (PO)”
Blood and tumors were collected 3 hours after the last dose. Blood was transferred to microfuge tubes containing E DTA, centrifuged at 2000×g for 8 minutes at 4° C., and the upper plasma layer was transferred to new tubes and frozen at −80° C. Tumors were weighed and 200 to 500 mg of tumor tissue was transferred to microfuge tubes, which were then centrifuged at 15000×g for 10 minutes at 4° C. The supernatant was transferred to a fresh 96 well plate. […] The concentration of IFNβ in the thawed plasma and tumor fluid was determined using a Milliplex MAP mouse IFNβ assay (EMD Millipore, Burlington, MA, USA).

C[C@@H]1CN(c2ncc(C(F)(F)F)cn2)CCN1C(=O)[C@H]1C[C@@H](c2c[nH]c(=O)c(C(F)(F)F)c2)C1 [Example 1, 5-[(1S,3s)-3-{(2R)-2-methyl-4-[5-(trifluoromethyl)pyrimidin-2-yl]piperazine-1-carbonyl}cyclobutyl]-3-(trifluoromethyl)pyridin-2(1H)-one]
EC50 (DLD-1 parent cells): > 30 µM
EC50 (DLD-1 BRCA2 (−/−) cells): 18.5 µM
maximum tumor growth inhibition (TGIMax) (MC-38 (Ker) tumors; Dose A): 46%
maximum tumor growth inhibition (TGIMax) (MC-38 (Ker) tumors; Dose B): 77%
maximum tumor growth inhibition (TGIMax) (MC-38 (Ker) tumors; Dose C): 98%
maximum tumor growth inhibition (TGIMax) (MC-38 (Ker) tumors; Dose D): 99%
induction of IFNβ in plasma (IFNβ; plasma): not in plasma
induction of IFNβ in tumors (IFNβ; tumor fluid): induced IFNβ in MC-38 (Ker) tumors compared to vehicle
